Drawing on patent US10189836B2, “Therapeutic compounds, compositions and methods of use thereof” (Genentech, Inc., priority 2015, dated 2019), this text covers Ki for 16 molecules.

Usually Ki stands for a measure of affinity in units of concentration, obtained from inhibition or displacement.

Test [1] has as its target isolated recombinant JAK2 kinase domain (Homo sapiens (Human), UniProt O60674). As to the kind of experiment: JAK2 enzyme assay (Caliper LabChip, Ki). The class given is biochemical. The note with it: isolated recombinant JAK2 kinase domain, 0.2 nM enzyme, ATP 25 μM.
Test [2] concerns the target isolated recombinant JAK1 kinase domain (Homo sapiens (Human), UniProt P23458). As to the kind of experiment: JAK1 enzyme assay (Caliper LabChip, Ki). The class given is biochemical. The note with it: isolated recombinant JAK1 kinase domain, 1.5 nM enzyme, ATP 25 μM.

Chain of isolated recombinant JAK2 kinase domain (O60674 849-1124): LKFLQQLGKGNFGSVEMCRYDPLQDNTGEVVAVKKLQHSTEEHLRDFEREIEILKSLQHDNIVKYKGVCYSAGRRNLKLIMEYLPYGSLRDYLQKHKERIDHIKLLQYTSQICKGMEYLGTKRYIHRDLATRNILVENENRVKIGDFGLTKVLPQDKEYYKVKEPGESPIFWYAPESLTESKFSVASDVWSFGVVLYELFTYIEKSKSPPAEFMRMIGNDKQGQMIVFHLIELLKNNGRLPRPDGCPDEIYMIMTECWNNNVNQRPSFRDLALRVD
Chain of isolated recombinant JAK1 kinase domain (P23458 875-1153): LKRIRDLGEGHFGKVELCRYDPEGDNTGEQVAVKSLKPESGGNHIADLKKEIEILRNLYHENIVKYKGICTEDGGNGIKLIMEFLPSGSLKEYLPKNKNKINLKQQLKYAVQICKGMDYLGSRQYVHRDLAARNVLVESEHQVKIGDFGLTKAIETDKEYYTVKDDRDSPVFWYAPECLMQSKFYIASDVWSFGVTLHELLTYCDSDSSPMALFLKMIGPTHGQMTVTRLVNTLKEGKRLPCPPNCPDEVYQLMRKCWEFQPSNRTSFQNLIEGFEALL

For the molecule `CN1CCN(C(=O)Cn2cc(Nc3nc4c(N5CC6CCCC(C5)N6C(=O)C5CSC5)cccn4n3)cn2)CC1` [Example 96, 1-(4-methylpiperazin-1-yl)-2-[4-[[8-[9-(thietane-3-carbonyl)-3,9-diazabicyclo[3.3.1]nonan-3-yl]-[1,2,4]triazolo[1,5-a]pyridin-2-yl]amino]pyrazol-1-yl]ethanone], the values for the Ki in test [1] and in test [2] were 0.5 nM and 0.4 nM, respectively.
Consider `CN1CCN(C(=O)Cn2cc(Nc3nc4c(N5CC6CCCC(C5)N6C(=O)CC5CC(F)(F)C5)cccn4n3)cn2)CC1` [Example 97, 2-(3,3-difluorocyclobutyl)-1-[3-[2-[[1-[2-(4-methylpiperazin-1-yl)-2-oxo-ethyl]pyrazol-4-yl]amino]-[1,2,4]triazolo[1,5-a]pyridin-8-yl]-3,9-diazabicyclo[3.3.1]nonan-9-yl]ethanone], for which the values for the inhibitory constant (Ki) in test [1] and in test [2] were 0.5 nM and 0.6 nM, respectively.
For `CN1CCN(C(=O)Cn2cc(Nc3nc4c(N5CC6CCC(C5)N6CC(F)(F)F)cccn4n3)cn2)CC1` [Example 98, 1-(4-methylpiperazin-1-yl)-2-[4-[[8-[8-(2,2,2-trifluoroethyl)-3,8-diazabicyclo[3.2.1]octan-3-yl]-[1,2,4]triazolo[1,5-a]pyridin-2-yl]amino]pyrazol-1-yl]ethanone], in that order: 4.1 nM and 2.1 nM.
The like results for `CSc1ccc(C(=O)N2C3CCC2CN(c2cccn4nc(Nc5cnn(CC(=O)N6CCN(C)CC6)c5)nc24)C3)cc1` [Example 99, 1-(4-methylpiperazin-1-yl)-2-[4-[[8-[8-(4-methylsulfanylbenzoyl)-3,8-diazabicyclo[3.2.1]octan-3-yl]-[1,2,4]triazolo[1,5-a]pyridin-2-yl]amino]pyrazol-1-yl]ethanone] were, in that order, 5.4 nM and 1.6 nM.
For `CSc1cccc(C(=O)N2C3CCC2CN(c2cccn4nc(Nc5cnn(CC(=O)N6CCN(C)CC6)c5)nc24)C3)c1` [Example 100, 1-(4-methylpiperazin-1-yl)-2-[4-[[8-[8-(3-methylsulfanylbenzoyl)-3,8-diazabicyclo[3.2.1]octan-3-yl]-[1,2,4]triazolo[1,5-a]pyridin-2-yl]amino]pyrazol-1-yl]ethanone], in that order: 4.2 nM and 1.2 nM.
On to `CN1CCN(C(=O)Cn2cc(Nc3nc4c(N5CC6CCC(C5)N6Cc5cnc(CC(F)(F)F)s5)cccn4n3)cn2)CC1` [Example 101, 1-(4-methylpiperazin-1-yl)-2-[4-[[8-[8-[[2-(2,2,2-trifluoroethyl)thiazol-5-yl]methyl]-3,8-diazabicyclo[3.2.1]octan-3-yl]-[1,2,4]triazolo[1,5-a]pyridin-2-yl]amino]pyrazol-1-yl]ethanone], for which the Ki in test [1] came to 10.3 nM; in test [2] it was 2.9 nM.
For `CN1CCN(C(=O)Cn2cc(Nc3nc4c(N5CC6CCC(C5)N6C(=O)CC(N)C(F)(F)F)cccn4n3)cn2)CC1` (centres unmarked) [Example 102, 3-amino-4,4,4-trifluoro-1-[3-[2-[[1-[2-(4-methylpiperazin-1-yl)-2-oxo-ethyl]pyrazol-4-yl]amino]-[1,2,4]triazolo[1,5-a]pyridin-8-yl]-3,8-diazabicyclo[3.2.1]octan-8-yl]butan-1-one], in that order: 7.9 nM and 3.4 nM.
The like results for `CC(C(=O)N1CCN(C)CC1)n1cc(Nc2nc3c(N4CC5CCC(C4)N5C(=O)CCC(F)(F)F)cccn3n2)cn1` (centres unmarked) [Example 103, 4,4,4-trifluoro-1-[3-[2-[[1-[1-methyl-2-(4-methylpiperazin-1-yl)-2-oxo-ethyl]pyrazol-4-yl]amino]-[1,2,4]triazolo[1,5-a]pyridin-8-yl]-3,8-diazabicyclo[3.2.1]octan-8-yl]butan-1-one] were, in that order, 1.7 nM and 1.5 nM.
The like results for `CC(C(=O)N1CCN(C)CC1)n1cc(Nc2nc3c(N4CC5CCC(C4)N5C(=O)CCC(F)(F)F)cccn3n2)cn1` (centres unmarked) [Example 104, 4,4,4-trifluoro-1-[3-[2-[[1-[1-methyl-2-(4-methylpiperazin-1-yl)-2-oxo-ethyl]pyrazol-4-yl]amino]-[1,2,4]triazolo[1,5-a]pyridin-8-yl]-3,8-diazabicyclo[3.2.1]octan-8-yl]butan-1-one] were, in that order, 0.8 nM and 1.7 nM.
On to `CC(C(=O)N1CCN(C)CC1)n1cc(Nc2nc3c(N4CC5CCCC(C4)N5C(=O)CCC(F)(F)F)cccn3n2)cn1` (centres unmarked) [Example 105, 4,4,4-trifluoro-1-[3-[2-[[1-[1-methyl-2-(4-methylpiperazin-1-yl)-2-oxo-ethyl]pyrazol-4-yl]amino]-[1,2,4]triazolo[1,5-a]pyridin-8-yl]-3,9-diazabicyclo[3.3.1]nonan-9-yl]butan-1-one], for which the inhibition constant (Ki) in test [1] was determined as 0.8 nM; in test [2], 1 nM.
Take `CC(C(=O)N1CCN(C)CC1)n1cc(Nc2nc3c(N4CC5CCCC(C4)N5C(=O)CCC(F)(F)F)cccn3n2)cn1` (centres unmarked) [Example 106, 4,4,4-trifluoro-1-[3-[2-[[1-[1-methyl-2-(4-methylpiperazin-1-yl)-2-oxo-ethyl]pyrazol-4-yl]amino]-[1,2,4]triazolo[1,5-a]pyridin-8-yl]-3,9-diazabicyclo[3.3.1]nonan-9-yl]butan-1-one]: the Ki is 0.7 nM in test [1] and 1.6 nM in test [2].
The like results for `CSc1ccc(S(=O)(=O)N2C3CCC2CN(c2cccn4nc(Nc5cnn(CC(=O)N6CCN(C)CC6)c5)nc24)C3)cc1` [Example 107, 1-(4-methylpiperazin-1-yl)-2-[4-[[8-[8-(4-methylsulfanylphenyl)-sulfonyl-3,8-diazabicyclo[3.2.1]octan-3-yl]-[1,2,4]triazolo[1,5-a]pyridin-2-yl]amino]pyrazol-1-yl]ethanone] were, in that order, 0.8 nM and 0.4 nM.
For `CN1CCN(C(=O)Cn2cc(Nc3nc4c(N5CC6CCC(C5)N6S(=O)(=O)Cc5ccccc5)cccn4n3)cn2)CC1` [Example 108, 2-[4-[[8-(8-benzylsulfonyl-3,8-diazabicyclo[3.2.1]octan-3-yl)-[1,2,4]triazolo[1,5-a]pyridin-2-yl]amino]pyrazol-1-yl]-1-(4-methylpiperazin-1-yl)ethanone], in that order: 2.7 nM and 1 nM.
On to `CN1CCN(C(=O)Cn2cc(Nc3nc4c(N5CC6CCC(C5)N6CC5(CS(C)(=O)=O)CC5)cccn4n3)cn2)CC1` [Example 109, 1-(4-methylpiperazin-1-yl)-2-[4-[[8-[8-([1-(methylsulfonylmethyl)cyclopropyl]methyl]-3,8-diazabicyclo[3.2.1]octan-3-yl]-[1,2,4]triazolo[1,5-a]pyridin-2-yl]amino]pyrazol-1-yl]ethanone], for which the Ki in test [1] was determined as 7 nM; in test [2], 4.8 nM.
The like results for `CN1CCN(C(=O)Cn2cc(Nc3nc4c(N5CC6CCC(C5)N6C(=O)NCC(F)(F)F)cccn4n3)cn2)CC1` [Example 110, 3-[2-[[1-[2-(4-methylpiperazin-1-yl)-2-oxo-ethyl]pyrazol-4-yl]amino]-[1,2,4]triazolo[1,5-a]pyridin-8-yl]-N-(2,2,2-trifluoroethyl)-3,8-diazabicyclo[3.2.1]octane-8-carboxamide] were, in that order, 3.4 nM and 0.9 nM.
On to `CN1CCN(C(=O)Cn2cc(Nc3nc4c(N5CC6CCC(C5)N6S(=O)(=O)c5ccccc5Cl)cccn4n3)cn2)CC1` [Example 111, 2-[4-[[8-[8-(2-chlorophenyl)sulfonyl-3,8-diazabicyclo[3.2.1]octan-3-yl]-[1,2,4]triazolo[1,5-a]pyridin-2-yl]amino]pyrazol-1-yl]-1-(4-methylpiperazin-1-yl)ethanone], for which the Ki in test [1] and in test [2] was 0.5 nM throughout.
